Laboratory results: patent US11987588B2, “Modulators of the beta-3 adrenergic receptor useful for the treatment or prevention of heart failure and disorders related thereto” (Arena Pharmaceuticals, Inc., priority 2017, dated 2024)

Target: Beta-3 Adrenergic Receptor (Homo sapiens (Human), UniProt P13945)
Test: Homogeneous Time-Resolved Fluorescence (HTRF) cAMP antagonist assay, IC50 determination
Assay type: cell-based
Settings: CHO-K1 cells stably expressing recombinant receptor, isoproterenol at EC90
Outline: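 CHO-K1 cells stably expressing the recombinant receptor were preincubated with compound (10-point, 5-fold dilutions; top final typically 10 or 100 μM) in PBS with 1 mM IBMX, then stimulated with isoproterenol at its EC90 for 1 h at room temperature. cAMP was read by HTRF against an on-plate standard curve.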

Sequence of Beta-3 Adrenergic Receptor (P13945 whole entry, species assumed): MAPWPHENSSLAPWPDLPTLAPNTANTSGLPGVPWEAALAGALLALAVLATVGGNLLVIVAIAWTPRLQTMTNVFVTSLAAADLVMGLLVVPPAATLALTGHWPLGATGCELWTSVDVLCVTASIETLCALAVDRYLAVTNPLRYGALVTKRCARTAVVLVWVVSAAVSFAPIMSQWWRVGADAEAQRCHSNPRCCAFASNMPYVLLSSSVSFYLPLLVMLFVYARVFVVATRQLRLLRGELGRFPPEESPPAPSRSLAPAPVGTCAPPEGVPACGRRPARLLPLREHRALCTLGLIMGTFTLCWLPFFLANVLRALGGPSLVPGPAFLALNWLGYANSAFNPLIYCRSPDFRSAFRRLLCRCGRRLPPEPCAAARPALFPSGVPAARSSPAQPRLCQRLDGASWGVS

| Compound | IC50 |
| --- | --- |
| CNS(=O)(=O)c1cccc(OC[C@@H](O)CNC2COC3(CCN(S(=O)(=O)c4cccc(-c5ccn(C)c5)c4)CC3)C2)c1 (stereo partly drawn) [Compound 76, 3-((2S)-2-hydroxy-3-(8-(3-(1-methyl-1H-pyrrol-3-yl)phenylsulfonyl)-1-oxa-8-azaspiro[4.5]decan-3-ylamino)propoxy)-N-methylbenzenesulfonamide] | 0.0265 µM |
| CNS(=O)(=O)c1cccc(OC[C@@H](O)CNC2COC3(CCN(S(=O)(=O)c4cccc(-c5cnn(Cc6ccccc6)c5)c4)CC3)C2)c1 (stereo partly drawn) [Compound 77, 3-((2S)-3-(8-(3-(1-benzyl-1H-pyrazol-4-yl)phenylsulfonyl)-1-oxa-8-azaspiro[4.5]decan-3-ylamino)-2-hydroxypropoxy)-N-methylbenzenesulfonamide] | 0.0175 µM |
| CNS(=O)(=O)c1cccc(OC[C@@H](O)CNC2COC3(CCN(S(=O)(=O)c4cccc(-c5ccco5)c4)CC3)C2)c1 (stereo partly drawn) [Compound 78, 3-((2S)-3-(8-(3-(furan-2-yl)phenylsulfonyl)-1-oxa-8-azaspiro[4.5]decan-3-ylamino)-2-hydroxypropoxy)-N-methylbenzenesulfonamide] | 0.0207 µM |
| CNS(=O)(=O)c1cccc(OC[C@@H](O)CNC2COC3(CCN(S(=O)(=O)c4cccc(-c5ccc(CN)cc5)c4)CC3)C2)c1 (stereo partly drawn) [Compound 79, 3-((2S)-3-(8-(4′-(aminomethyl)biphenyl-3-ylsulfonyl)-1-oxa-8-azaspiro[4.5]decan-3-ylamino)-2-hydroxypropoxy)-N-methylbenzenesulfonamide] | 0.00715 µM |
| CCCn1cc(-c2cccc(S(=O)(=O)N3CCC4(CC3)CC(NC[C@H](O)COc3cccc(S(=O)(=O)NC)c3)CO4)c2)cn1 (stereo partly drawn) [Compound 80, 3-((2S)-2-hydroxy-3-(8-(3-(1-propyl-1H-pyrazol-4-yl)phenylsulfonyl)-1-oxa-8-azaspiro[4.5]decan-3-ylamino)propoxy)-N-methylbenzenesulfonamide] | 0.0143 µM |
| CNS(=O)(=O)c1cccc(OC[C@@H](O)CNC2COC3(CCN(S(=O)(=O)c4cccc(-c5cnn(CC(C)C)c5)c4)CC3)C2)c1 (stereo partly drawn) [Compound 81, 3-((2S)-2-hydroxy-3-(8-(3-(1-isobutyl-1H-pyrazol-4-yl)phenylsulfonyl)-1-oxa-8-azaspiro[4.5]decan-3-ylamino)propoxy)-N-methylbenzenesulfonamide] | 0.0166 µM |
| CNS(=O)(=O)c1cccc(OC[C@@H](O)CNC2COC3(CCN(S(=O)(=O)c4cccc(-c5cnn(CC6CC6)c5)c4)CC3)C2)c1 (stereo partly drawn) [Compound 82, 3-((2S)-3-(8-(3-(1-(cyclopropylmethyl)-1H-pyrazol-4-yl)phenylsulfonyl)-1-oxa-8-azaspiro[4.5]decan-3-ylamino)-2-hydroxypropoxy)-N-methylbenzenesulfonamide] | 0.0159 µM |
| CNS(=O)(=O)c1cccc(OC[C@@H](O)CNC2COC3(CCN(S(=O)(=O)c4cccc(-c5cccc(N(C)C)c5)c4)CC3)C2)c1 (stereo partly drawn) [Compound 83, 3-((2S)-3-(8-(3′-(dimethylamino)biphenyl-3-ylsulfonyl)-1-oxa-8-azaspiro[4.5]decan-3-ylamino)-2-hydroxypropoxy)-N-methylbenzenesulfonamide] | 0.0999 µM |
| CNS(=O)(=O)c1cccc(OC[C@@H](O)CNC2COC3(CCN(S(=O)(=O)c4cccc(-c5cc[nH]n5)c4)CC3)C2)c1 (stereo partly drawn) [Compound 84, 3-((2S)-3-(8-(3-(1H-pyrazol-3-yl)phenylsulfonyl)-1-oxa-8-azaspiro[4.5]decan-3-ylamino)-2-hydroxypropoxy)-N-methylbenzenesulfonamide] | 0.00909 µM |
| CNS(=O)(=O)c1cccc(OC[C@@H](O)CNC2COC3(CCN(S(=O)(=O)c4cccc(-c5ccc(S(N)(=O)=O)cc5)c4)CC3)C2)c1 (stereo partly drawn) [Compound 85, 3′-(3-((S)-2-hydroxy-3-(3-(N-methylsulfamoyl)phenoxy)propylamino)-1-oxa-8-azaspiro[4.5]decan-8-ylsulfonyl)biphenyl-4-sulfonamide] | 0.00973 µM |
| CNS(=O)(=O)c1cccc(OC[C@@H](O)CNC2COC3(CCN(S(=O)(=O)c4cccc(-c5ccc(NS(C)(=O)=O)cc5)c4)CC3)C2)c1 (stereo partly drawn) [Compound 86, 3-((2S)-2-hydroxy-3-(8-(4′-(methylsulfonamido)biphenyl-3-ylsulfonyl)-1-oxa-8-azaspiro[4.5]decan-3-ylamino)propoxy)-N-methylbenzenesulfonamide] | 0.00936 µM |
| CNS(=O)(=O)c1cccc(OC[C@@H](O)CNC2COC3(CCN(S(=O)(=O)c4cccc(-c5ccc(CC(=O)O)cc5)c4)CC3)C2)c1 (stereo partly drawn) [Compound 87, 2-(3′-(3-((S)-2-hydroxy-3-(3-(N-methylsulfamoyl)phenoxy)propylamino)-1-oxa-8-azaspiro[4.5]decan-8-ylsulfonyl)biphenyl-4-yl)acetic acid] | 0.0661 µM |
| CNS(=O)(=O)c1cccc(OC[C@@H](O)CNC2COC3(CCN(S(=O)(=O)c4cccc(-c5cccnc5)c4)CC3)C2)c1 (stereo partly drawn) [Compound 88, 3-((2S)-2-hydroxy-3-(8-(3-(pyridin-3-yl)phenylsulfonyl)-1-oxa-8-azaspiro[4.5]decan-3-ylamino)propoxy)-N-methylbenzenesulfonamide] | 0.00982 µM |
| CNC(=O)[C@@H](NS(=O)(=O)c1cccc(OC[C@@H](O)CNC2COC3(CCN(S(=O)(=O)c4ccc5ccccc5c4)CC3)C2)c1)[C@@H](C)O (stereo partly drawn) [Compound 92, (2S,3R)-3-hydroxy-2-(3-((2S)-2-hydroxy-3-(8-(naphthalen-2-ylsulfonyl)-1-oxa-8-azaspiro[4.5]decan-3-ylamino)propoxy)phenylsulfonamido)-N-methylbutanamide] | 1.99 µM |

More lines, now with the values ahead:

| IC50 | Compound |
| --- | --- |
| 0.0398 µM | COCCCNS(=O)(=O)c1cccc(OC[C@@H](O)CNC2COC3(CCN(S(=O)(=O)c4ccc5ccccc5c4)CC3)C2)c1 (stereo partly drawn) [Compound 75, 3-((2S)-2-hydroxy-3-(8-(naphthalen-2-ylsulfonyl)-1-oxa-8-azaspiro[4.5]decan-3-ylamino)propoxy)-N-(3-methoxypropyl)benzenesulfonamide] |
| 0.429 µM | O=S(=O)(NC1CC(F)(F)C1)c1cccc(OC[C@@H](O)CNC2COC3(CCN(S(=O)(=O)c4ccc5ccccc5c4)CC3)C2)c1 (stereo partly drawn) [Compound 89, N-(3,3-difluorocyclobutyl)-3-((2S)-2-hydroxy-3-(8-(naphthalen-2-ylsulfonyl)-1-oxa-8-azaspiro[4.5]decan-3-ylamino)propoxy)benzenesulfonamide] |
| 0.0492 µM | CN(C1CC1)S(=O)(=O)c1cccc(OC[C@@H](O)CNC2COC3(CCN(S(=O)(=O)c4ccc5ccccc5c4)CC3)C2)c1 (stereo partly drawn) [Compound 90, N-cyclopropyl-3-((2S)-2-hydroxy-3-(8-(naphthalen-2-ylsulfonyl)-1-oxa-8-azaspiro[4.5]decan-3-ylamino)propoxy)-N-methylbenzenesulfonamide] |
| 1.12 µM | NCCNS(=O)(=O)c1cccc(OC[C@@H](O)CNC2COC3(CCN(S(=O)(=O)c4ccc5ccccc5c4)CC3)C2)c1 (stereo partly drawn) [Compound 91, N-(2-aminoethyl)-3-((2S)-2-hydroxy-3-(8-(naphthalen-2-ylsulfonyl)-1-oxa-8-azaspiro[4.5]decan-3-ylamino)propoxy)benzenesulfonamide] |
| 0.112 µM | C[C@@H](NS(=O)(=O)c1cccc(OC[C@@H](O)CNC2COC3(CCN(S(=O)(=O)c4ccc5ccccc5c4)CC3)C2)c1)C1CC1 (stereo partly drawn) [Compound 93, N—((R)-1-cyclopropylethyl)-3-((2S)-2-hydroxy-3-(8-(naphthalen-2-ylsulfonyl)-1-oxa-8-azaspiro[4.5]decan-3-ylamino)propoxy)benzenesulfonamide] |
| 0.0598 µM | CC(C)(C)NS(=O)(=O)c1cccc(OC[C@@H](O)CNC2COC3(CCN(S(=O)(=O)c4ccc5ccccc5c4)CC3)C2)c1 (stereo partly drawn) [Compound 94, N-tert-butyl-3-((2S)-2-hydroxy-3-(8-(naphthalen-2-ylsulfonyl)-1-oxa-8-azaspiro[4.5]decan-3-ylamino)propoxy)benzenesulfonamide] |
| 0.159 µM | O=S(=O)(NC(CO)CO)c1cccc(OC[C@@H](O)CNC2COC3(CCN(S(=O)(=O)c4ccc5ccccc5c4)CC3)C2)c1 (stereo partly drawn) [Compound 95, N-(1,3-dihydroxypropan-2-yl)-3-((2S)-2-hydroxy-3-(8-(naphthalen-2-ylsulfonyl)-1-oxa-8-azaspiro[4.5]decan-3-ylamino)propoxy)benzenesulfonamide] |
| 0.0421 µM | C[C@H](CO)NS(=O)(=O)c1cccc(OC[C@@H](O)CNC2COC3(CCN(S(=O)(=O)c4ccc5ccccc5c4)CC3)C2)c1 (stereo partly drawn) [Compound 96, 3-((2S)-2-hydroxy-3-(8-(naphthalen-2-ylsulfonyl)-1-oxa-8-azaspiro[4.5]decan-3-ylamino)propoxy)-N—((R)-1-hydroxypropan-2-yl)benzenesulfonamide] |
| 0.127 µM | CCC(CC)CNS(=O)(=O)c1cccc(OC[C@@H](O)CNC2COC3(CCN(S(=O)(=O)c4ccc5ccccc5c4)CC3)C2)c1 (stereo partly drawn) [Compound 97, N-(2-ethylbutyl)-3-((2S)-2-hydroxy-3-(8-(naphthalen-2-ylsulfonyl)-1-oxa-8-azaspiro[4.5]decan-3-ylamino)propoxy)benzenesulfonamide] |
| 0.0711 µM | CC(C)CCNS(=O)(=O)c1cccc(OC[C@@H](O)CNC2COC3(CCN(S(=O)(=O)c4ccc5ccccc5c4)CC3)C2)c1 (stereo partly drawn) [Compound 98, 3-((2S)-2-hydroxy-3-(8-(naphthalen-2-ylsulfonyl)-1-oxa-8-azaspiro[4.5]decan-3-ylamino)propoxy)-N-isopentylbenzenesulfonamide] |
| 0.121 µM | O=S(=O)(NC1(CO)CC1)c1cccc(OC[C@@H](O)CNC2COC3(CCN(S(=O)(=O)c4ccc5ccccc5c4)CC3)C2)c1 (stereo partly drawn) [Compound 99, 3-((2S)-2-hydroxy-3-(8-(naphthalen-2-ylsulfonyl)-1-oxa-8-azaspiro[4.5]decan-3-ylamino)propoxy)-N-(1-(hydroxymethyl)cyclopropyl)benzenesulfonamide] |
| 0.256 µM | C[C@@H](NS(=O)(=O)c1cccc(OC[C@@H](O)CNC2COC3(CCN(S(=O)(=O)c4ccc5ccccc5c4)CC3)C2)c1)C(C)(C)C (stereo partly drawn) [Compound 100, N—((R)-3,3-dimethylbutan-2-yl)-3-((2S)-2-hydroxy-3-(8-(naphthalen-2-ylsulfonyl)-1-oxa-8-azaspiro[4.5]decan-3-ylamino)propoxy)benzenesulfonamide] |
